Read-outs that look alike come from different tables or passages of the source.

In series [1] the test system is S. cerevisiae BY4741 fpr1-KO expressing human FKBP12 variants. The experiment in a line: Yeast disk diffusion growth inhibition assay. In kind it is cell-based, Saccharomyces cerevisiae. Particulars: 100 µM on disk, 3 d. The source says:
BY4741 fpr1::URA3 yeast were generated by homologous recombination, selected on Ura- synthetic complete medium and subsequently grown in yeast extract-peptone-dextrose (YPD) medium ([46]). Human FKBP12 coding sequence was cloned via Gibson assembly into a pCH043 yeast expression vector, which had been previously modified with an HIS3 selection open reading frame (ORF). The C-terminal HA-tag and F46/V55 mutations were introduced by site-directed mutagenesis PCR. Plasmids were transformed into the BY4741 fpr1::URA3 strain and selected on His- synthetic complete medium. Isolated strains were verified by plasmid sequencing. To prepare yeast protein lysates, 2 optical density (OD) equivalents from an overnight culture was resuspended in 200 µl 0.1 M NaOH and incubated at room temperature for 15 min. Cells were pelleted, resuspended in 50 µL 2x SDS loading dye, and heated at 95 °C for 5 min. Following centrifugation at 20,000 × g for 10 min, supernatant was saved for analysis.
Yeast strains containing FKBP12-expression vectors were shaken overnight at 30 °C in 3 mL His- synthetic complete media. 0.1 OD of culture was spun down, resuspended in 1 mL sterile water, and 100 µL was spread on His-synthetic media containing galactose/raffinose to induce protein expression. Plates were incubated at 30 °C for 1 h to dry. Filter paper circles were prepared with a hole punch, placed on the plate, and 5 µL of DMSO, 100 µM rapamycin, or 100 µM Rapa* compound was pipetted onto the filter paper. Plates were incubated at 30 °C for 3 d before zones of growth inhibition were measured.
(In general: A growth-free zone around the sample is the usual read-out of agar diffusion tests.)

A short description of series [2]: Bidirectional Caco-2 cell permeability. The format is in vitro ADME. Conditions: human, LC-MS. The method, then:
PAMPA and Caco-2 membrane permeability assays […]
MS) after 5 hours. Bidirectional Caco-2 cell permeability assay was performed by Quintara
Discovery. Compounds were analyzed at 10 µM and measured by LC-MS after 1 hour.
(In general: Passage across Caco-2 layers is used to estimate intestinal permeability.)

The nature of series [3]: PAMPA membrane permeability. The format is in vitro ADME. Conditions: 100 µM in PBS, LC-MS. The procedure:
PAMPA and Caco-2 membrane permeability assays
PAMPA was performed by Quintara Discovery as described previously (2). Compounds were
analyzed at 100 µM in PBS and measured using liquid chromatography-mass spectrometry (LC-
In general terms: The PAMPA barrier holds no transporters, so it reflects passive diffusion.

The test system of series [4] is mTOR signaling in Flp-In T-REx 293 FKBP12 V55G cells. The series can be described thus: mTOR signaling by Western blot in FKBP12 V55G-expressing Flp-In 293 cells. In kind it is cell-based, human. Particulars: for IC50: Homo sapiens, 24 h treatment, mutant (FKBP12 V55G) 293 cells. The method, then: All cell lines were maintained in DMEM (Gibco) supplemented with 10% heat-inactivated FBS (Axenia Biologix) at 37 °C in 5% CO2. Flp-In T-REx 293 cells were obtained from Thermo Fisher supplemented with 15 µg/mL blasticin and 100 µg/mL Zeocin. Flp-In T-REx 293 FKBP12 V55G cells were supplemented with 15 µg/mL blasticin and 150 µg/mL hygromycin B. FKBP12 V55G expression was induced with 1 µg/mL doxycycline 24 h prior to drug treatments. MCF7 cells were obtained from ATCC (American Type Culture Collection), and MCF7 mTOR F2108L cells were described previously ([30]). When indicated, cells were treated with drugs at 60–80% confluency at a final DMSO concentration of 0.1%. At the end of the treatment period, cells were placed on ice and washed once with PBS. Cells were scraped with a spatula and lysed in radioimmunoprecipitation assay (RIPA) buffer supplemented with protease and phosphatase inhibitors (cOmplete and phosSTOP, Roche) on ice for 5 min. Lysates were clarified by high-speed centrifugation. Lysate concentration was determined by Bradford assay (Thermo Fisher) and adjusted to 2 mg/mL with additional RIPA buffer. Samples were mixed with 5x SDS loading dye and heated at 95 °C for 5 min.
SDS-PAGE was run with Novex 4–12% Bis-Tris gel (Invitrogen) in MOPS running buffer at 200V for 40 min. Samples were loaded at 20 µg lysate per lane. Protein bands were transferred onto 0.2 µm nitrocellulose membranes (Bio-Rad) using wet tank transfer apparatus (Bio-Rad Criterion Blotter) in 1x TOWBIN buffer with 10% methanol at 75V for 45 min. Membranes were blocked in 5% BSA-TBST (tris-buffered saline, 0.1% Tween 20) for 1 h at room temperature. Membranes were cut into separate strips for each primary antibody. Primary antibody binding was performed with the indicated antibodies at manufacturer’s recommended dilution in 5% BSA-TBST at 4 °C overnight. After three 5 min. washes with TBST, secondary antibodies (Li-COR) were added as solutions in 5% skim milk-TBST at 1:10,000 dilutions. Secondary antibodies were incubated for 1 h at room temperature. Following three 5 min. washes with TBST, membranes were imaged on a Li-COR Odyssey fluorescence imager. Image contrast was adjusted independently for each strip using the “Auto” adjustment function in Fiji. Blot quantification was performed in Fiji, and data were graphed and fit in Prism 9 (GraphPad). The following primary antibodies were obtained from Cell Signaling Technology (CST), Abcam (ab), and ProteinTech (PT): S6 (CST 2317), phospho-S6 S240/244 (CST 5364), S6K (CST 2708), phospho-S6K T389 (CST 9206), Akt (CST 2920), phospho-Akt S473 (CST 4060), HA (CST 3724), FKBP12 (ab58072), and GAPDH (PT 60004). For detection of phosphorylated and total protein, primary antibodies for phospho-Akt/Akt, phospho-S6K/S6K, or phospho-S6/S6 were combined and detected using a mixture of species-specific secondary antibodies with orthogonal fluorescence to allow simultaneous detection of phosphorylated and total protein from a single membrane, or membrane was stripped (Cell Signaling Technology) after detection of phosphorylated protein and then reblocked and reprobed with primary antibody for total protein. […]
Generation of 293 Flp-In T-REx FKBP12 V55G cell line
FKBP12 V55G-expressing Flp-In T-REx 293 cells were generated using recommended conditions from Thermo Fisher. Briefly, human FKBP12 V55G-HA coding sequence was cloned into the pcDNA5/FRT/TO targeting vector by Gibson assembly. […]

Broadly, the Papp A→B is how fast a substance crosses the layer from the apical side. Read a high Papp A→B as fast passage. As usually defined, the Papp B→A is how fast a substance crosses the layer from the basolateral side. As a reminder, the Papp is the rate of passage across a membrane or cell layer, normalised by area and donor concentration. Broadly, the IC50 is the midpoint of a concentration-inhibition curve. For the molecule `CCO/N=C1/C[C@@H]([C@H](C)C[C@@H]2CC[C@@H](O)[C@H](OC)C2)OC(=O)[C@@H]2CCCCN2C(=O)C(=O)[C@]2(O)O[C@@H](CC[C@H]2C)C[C@H](OC)/C(C)=C/C=C/C=C/[C@@H](C)C[C@@H](C)C(=O)[C@H](OC)[C@H](O)/C(C)=C/[C@H]1C` [Rapa*-3Z], the “Growth inhibition of yeast expressing FKBP12 V55G” value in series [1] is recorded as “displayed the highest level of inhibition”. In series [2], this molecule displayed a Papp A→B at 1 h, 10 µM of less than 0.5 ×10⁻⁶ cm/s and a Papp B→A at 1 h, 10 µM of 1 ×10⁻⁶ cm/s. This molecule registered a Papp at 5 h, 100 µM in series [3] of 0.053 ×10⁻⁶ cm/s. For the same molecule, the “Time to half-maximal inhibition of S6 phosphorylation” value in series [4] (10 nM, mutant FKBP12 293 cells) is reported as 31 min. For the same molecule, in series [4] (24 h, mutant vs wild-type 293 cells), the “Akt phosphorylation (mTORC2 substrate)” value is reported as “selectively reduced Akt phosphorylation in the mutant 293 cells at higher doses”. For the same molecule, the IC50 in series [4] (read-out: IC50 phospho-S6) was found to be 1.3 nM. In series [4] (read-out: IC50 phospho-S6K), the IC50 was 1 nM. Moreover, the “Increase in sensitivity in mutant-expressing cells vs wild-type cells” value in series [4] (p-S6K and p-S6 IC50s, 24 h) was roughly 100 fold.
